Laboratory results: patent publication US6380202B1, “Fungicidal fluoro-substituted 7-heterocyclyl-triazolopyrimidines” (BASF Aktiengesellschaft, priority 1998, dated 2002)
Converted amounts (≈) assume the structure as drawn. “And” between values parts separate entries of the source, which are not always exact repeats. Identical values can stand only once. Like-named read-outs stand apart in the source and are kept apart here.

How the values were obtained:
Phytophthora infestans = type: cell-based; conditions: total inhibition of mycelial growth; V8 nutrient solution; 6-12 days incubation, 18-25° C.; visual inspection
Botrytis cinerea = type: cell-based
Leptosphaeria nodorum [1] = experiment: MIC serial dilution test, Leptosphaeria nodorum (LEPTNO); type: cell-based
Leptosphaeria nodorum [2] = experiment: Greenhouse test, Wheat Septoria nodorum (WSN); conditions: Foliar application, 2 day residual (inoculation 2 days after application)
[3] = system: Erysiphe graminis DC. f.sp. tritici E. Marchal; conditions: in vivo
Alternaria solani = type: cell-based
Rhizoctonia solani = type: cell-based
[4] = system: Magnaporthe grisea f. sp. oryzae; type: cell-based; conditions: total inhibition of mycelial growth; V8 nutrient solution; 6-12 days incubation, 18-25° C.; visual inspection
Pyrenophora teres = type: cell-based
Puccinia recondita = conditions: in vivo
[5] = […], V8 nutrient solution, 6-12 days incubation, 18-25° C., visual inspection
[6] = total inhibition of mycelial growth, V8 nutrient solution, 6-12 days incubation, 18-25° C., visual inspection

With `Fc1cc(F)c(-c2c(Cl)nc3ncnn3c2N2CCC(F)CC2)c(F)c1` [Example 1, 5-chloro-7-(4-fluoropiperid-1-yl)-6-(2,4,6-trifluorophenyl)-1,2,4-triazolo[1,5a]pyrimidine] the “MIC (Minimum Inhibitory Concentration) PHYTIN” value (Phytophthora infestans) was 50000 µg/mL (≈ 130 mM), the “MIC (Minimum Inhibitory Concentration) BOTRCI” value (Botrytis cinerea; [5]) was 3130 µg/mL (≈ 8.11 mM) and the “MIC (Minimum Inhibitory Concentration) LEPTNO” value (Leptosphaeria nodorum [1]; [6]) was 12500 µg/mL (≈ 32.4 mM). The “Disease control (% efficacy) WSN 2 da R” value (Leptosphaeria nodorum [2]; 25 ppm) was 54%, the “Disease control (% efficacy) WSN 2 da R” value (Leptosphaeria nodorum [2]; 100 ppm) was 100% and the “Disease control (% efficacy) WPM 2 da R” value [3] was 88% and 100%. For the same compound, the “MIC (Minimum Inhibitory Concentration) ALTESO” value (Alternaria solani; [5]) was 200 µg/mL (≈ 0.518 mM), the “MIC (Minimum Inhibitory Concentration) RHIZSO” value (Rhizoctonia solani; [5]) was 12500 µg/mL (≈ 32.4 mM) and the “MIC (Minimum Inhibitory Concentration) PYRIOR” value [4] was 1560 µg/mL (≈ 4.04 mM). For the same compound, the “MIC (Minimum Inhibitory Concentration) PYRNTE” value (Pyrenophora teres) was 1560 µg/mL (≈ 4.04 mM).

With `FCC1CCN(c2c(-c3c(F)cccc3Cl)c(Cl)nc3ncnn23)CC1` [Example 2, 5-chloro-7-(4-fluoromethylpiperid-1-yl)-6-(2-chloro-6-fluorophenyl)-1,2,4-triazolo[1,5a]pyrimidine] the “MIC (Minimum Inhibitory Concentration) PHYTIN” value (Phytophthora infestans) was >100000 µg/mL, the “MIC (Minimum Inhibitory Concentration) BOTRCI” value (Botrytis cinerea; [5]) was 3130 µg/mL (≈ 7.86 mM) and the “MIC (Minimum Inhibitory Concentration) LEPTNO” value (Leptosphaeria nodorum [1]; [6]) was >100000 µg/mL. The “Disease control (% efficacy) WSN 2 da R” value (Leptosphaeria nodorum [2]; 25 ppm) was 17%, the “Disease control (% efficacy) WSN 2 da R” value (Leptosphaeria nodorum [2]; 100 ppm) was 83% and the “Disease control (% efficacy) WLR 2 da R” value (Puccinia recondita) was 100%. For the same compound, the “MIC (Minimum Inhibitory Concentration) ALTESO” value (Alternaria solani; [5]) was 390 µg/mL (≈ 0.979 mM), the “MIC (Minimum Inhibitory Concentration) RHIZSO” value (Rhizoctonia solani; [5]) was >100000 µg/mL and the “MIC (Minimum Inhibitory Concentration) PYRIOR” value [4] was 780 µg/mL (≈ 1.96 mM). The “MIC (Minimum Inhibitory Concentration) PYRNTE” value (Pyrenophora teres; [5]) was 3130 µg/mL (≈ 7.86 mM).

For `Fc1cccc(Cl)c1-c1c(Cl)nc2ncnn2c1N1CCCC(F)C1` (stereo not drawn) [Example 3, 5-chloro-6-(2-chloro-6-fluorophenyl)-7-N-(3-fluoropiperid-1-yl)-[1,2,4]triazolo[1,5-a]pyrimidine], the “MIC (Minimum Inhibitory Concentration) PHYTIN” value (Phytophthora infestans) was >100000 µg/mL, the “MIC (Minimum Inhibitory Concentration) BOTRCI” value (Botrytis cinerea; [5]) was 12500 µg/mL (≈ 32.5 mM) and the “MIC (Minimum Inhibitory Concentration) LEPTNO” value (Leptosphaeria nodorum [1]; [6]) was 50000 µg/mL (≈ 130 mM). The “Disease control (% efficacy) WSN 2 da R” value (Leptosphaeria nodorum [2]; 25 ppm) was 0%, the “Disease control (% efficacy) WSN 2 da R” value (Leptosphaeria nodorum [2]; 100 ppm) was 92% and the “MIC (Minimum Inhibitory Concentration) ALTESO” value (Alternaria solani) was 6250 µg/mL (≈ 16.3 mM). For the same compound, the “MIC (Minimum Inhibitory Concentration) RHIZSO” value (Rhizoctonia solani; [5]) was 50000 µg/mL (≈ 130 mM), the “MIC (Minimum Inhibitory Concentration) PYRIOR” value [4] was 6250 µg/mL (≈ 16.3 mM) and the “MIC (Minimum Inhibitory Concentration) PYRNTE” value (Pyrenophora teres) was 6250 µg/mL (≈ 16.3 mM).

With `Fc1c(F)c(F)c(-c2c(Cl)nc3ncnn3c2N2CCCC(F)C2)c(F)c1F` (stereo not drawn) [Example 4, 5-chloro-7-N-(3-fluoropiperid-1-yl)-6-(pentafluorophenyl)-[1,2,4]triazolo[1,5-a]pyrimidine] the “MIC (Minimum Inhibitory Concentration) PHYTIN” value (Phytophthora infestans) was 100000 µg/mL (≈ 237 mM), the “MIC (Minimum Inhibitory Concentration) BOTRCI” value (Botrytis cinerea; [5]) was 12500 µg/mL (≈ 29.6 mM) and the “MIC (Minimum Inhibitory Concentration) LEPTNO” value (Leptosphaeria nodorum [1]; [6]) was 50000 µg/mL (≈ 119 mM). The “Disease control (% efficacy) WSN 2 da R” value (Leptosphaeria nodorum [2]; 25 ppm) was 0%, the “Disease control (% efficacy) WSN 2 da R” value (Leptosphaeria nodorum [2]; 100 ppm) was 0% and the “MIC (Minimum Inhibitory Concentration) ALTESO” value (Alternaria solani; [5]) was 3130 µg/mL (≈ 7.42 mM). The “MIC (Minimum Inhibitory Concentration) RHIZSO” value (Rhizoctonia solani; [5]) was 6250 µg/mL (≈ 14.8 mM), the “MIC (Minimum Inhibitory Concentration) PYRIOR” value [4] was 1560 µg/mL (≈ 3.7 mM) and the “MIC (Minimum Inhibitory Concentration) PYRNTE” value (Pyrenophora teres; [5]) was 12500 µg/mL (≈ 29.6 mM).

In the case of `Fc1cccc(Cl)c1-c1c(Cl)nc2ncnn2c1N1CCC(F)(F)CC1` [Example 5, 5-chloro-6-(2-chloro-6-fluorophenyl)-7-N-(4,4-difluoropiperid-1-yl)-[1,2,4]triazolo[1,5-a]pyrimidine], the “MIC (Minimum Inhibitory Concentration) PHYTIN” value (Phytophthora infestans) is reported as >100000 µg/mL, the “MIC (Minimum Inhibitory Concentration) BOTRCI” value (Botrytis cinerea; [5]) is reported as 50000 µg/mL (≈ 124 mM) and the “MIC (Minimum Inhibitory Concentration) LEPTNO” value (Leptosphaeria nodorum [1]; [6]) is reported as 12500 µg/mL (≈ 31.1 mM). The “Disease control (% efficacy) WSN 2 da R” value (Leptosphaeria nodorum [2]; 25 ppm) was 36%, the “Disease control (% efficacy) WSN 2 da R” value (Leptosphaeria nodorum [2]; 100 ppm) was 98% and the “Disease control (% efficacy) WPM 2 da R” value [3] was 74% and 94% and 84%. For the same compound, the “Disease control (% efficacy) WLR 2 da C” value (Puccinia recondita) was 10% and 0%, the “MIC (Minimum Inhibitory Concentration) ALTESO” value (Alternaria solani; [5]) was <50 µg/mL and the “MIC (Minimum Inhibitory Concentration) RHIZSO” value (Rhizoctonia solani; [5]) was >100000 µg/mL. The “MIC (Minimum Inhibitory Concentration) PYRIOR” value [4] was 200 µg/mL (≈ 0.497 mM) and the “MIC (Minimum Inhibitory Concentration) PYRNTE” value (Pyrenophora teres; [5]) was 3130 µg/mL (≈ 7.78 mM).

In the case of `FCC1CCN(c2c(-c3c(F)cc(F)cc3F)c(Cl)nc3ncnn23)CC1` [Example 6, 5-chloro-7-N-(4-fluoromethylpiperid-1-yl)-6-(2,4,6-trifluorophenyl)-[1,2,4]triazolo[1,5-a]pyrimidine], the “MIC (Minimum Inhibitory Concentration) PHYTIN” value (Phytophthora infestans) is reported as >100000 µg/mL, the “MIC (Minimum Inhibitory Concentration) BOTRCI” value (Botrytis cinerea) is reported as 3130 µg/mL (≈ 7.83 mM) and the “MIC (Minimum Inhibitory Concentration) LEPTNO” value (Leptosphaeria nodorum [1]) is reported as >100000 µg/mL. For the same compound, the “Disease control (% efficacy) WSN 2 da R” value (Leptosphaeria nodorum [2]; 25 ppm) was 63%, the “Disease control (% efficacy) WSN 2 da R” value (Leptosphaeria nodorum [2]; 100 ppm) was 99% and the “Disease control (% efficacy) WLR 2 da C” value (Puccinia recondita) was 100% and 98%. The “Disease control (% efficacy) WLR 2 da R” value (Puccinia recondita) was 100%, the “MIC (Minimum Inhibitory Concentration) ALTESO” value (Alternaria solani) was 390 µg/mL (≈ 0.976 mM) and the “MIC (Minimum Inhibitory Concentration) RHIZSO” value (Rhizoctonia solani) was >100000 µg/mL. For the same compound, the “MIC (Minimum Inhibitory Concentration) PYRIOR” value [4] was 780 µg/mL (≈ 1.95 mM) and the “MIC (Minimum Inhibitory Concentration) PYRNTE” value (Pyrenophora teres) was 3130 µg/mL (≈ 7.83 mM).
